Experimental data as given in patent US7524517B2, “Methods and compositions for P2X receptor calcium entry channels and other calcium entry mechanisms” (UAB Research Foundation, priority 2003, dated 2009).
pIC50: −log10 of the molar value. “Also recorded” adds a separate entry of the source.

Assays:
[1] = system: P2X receptor Ca^2+ entry channels; test: Fura-2/AM fluorescence imaging of cytosolic Ca2+ in IB3-1 CF airway epithelial cells; assay type: cell-based, human
[2] = system: calcium entry channels; test: Fura-2 fluorescence ratio, sustained calcium entry signals in mammalian cells (FIG. 19C); assay type: cell-based
[3] = system: non-mucoid and mucoid Pseudomonas aeruginosa; test: Bacterial growth in liquid LB medium and on LB-agar plates; assay type: cell-based
[4] = target: T1, ENaC (Mus musculus, UniProt Q61180+Q9WU38+Q9WU39); test: Ussing chamber / voltohmmeter recordings of ENaC-mediated Na+ absorption in airway and PKD collecting duct monolayers; assay type: cell-based; conditions: for concentrations required for inhibition in ISC recordings / doses inhibitory in PD assays: ARPKD sodium hyperabsorption; for doses inhibitory in PD assays: VTE/PD
T1 construct: from tissue; host or cells: nasal mucosa of living control, Cincinnati bitransgenic CF and delF508 CF mice
T1 sequence (Q61180 1-699): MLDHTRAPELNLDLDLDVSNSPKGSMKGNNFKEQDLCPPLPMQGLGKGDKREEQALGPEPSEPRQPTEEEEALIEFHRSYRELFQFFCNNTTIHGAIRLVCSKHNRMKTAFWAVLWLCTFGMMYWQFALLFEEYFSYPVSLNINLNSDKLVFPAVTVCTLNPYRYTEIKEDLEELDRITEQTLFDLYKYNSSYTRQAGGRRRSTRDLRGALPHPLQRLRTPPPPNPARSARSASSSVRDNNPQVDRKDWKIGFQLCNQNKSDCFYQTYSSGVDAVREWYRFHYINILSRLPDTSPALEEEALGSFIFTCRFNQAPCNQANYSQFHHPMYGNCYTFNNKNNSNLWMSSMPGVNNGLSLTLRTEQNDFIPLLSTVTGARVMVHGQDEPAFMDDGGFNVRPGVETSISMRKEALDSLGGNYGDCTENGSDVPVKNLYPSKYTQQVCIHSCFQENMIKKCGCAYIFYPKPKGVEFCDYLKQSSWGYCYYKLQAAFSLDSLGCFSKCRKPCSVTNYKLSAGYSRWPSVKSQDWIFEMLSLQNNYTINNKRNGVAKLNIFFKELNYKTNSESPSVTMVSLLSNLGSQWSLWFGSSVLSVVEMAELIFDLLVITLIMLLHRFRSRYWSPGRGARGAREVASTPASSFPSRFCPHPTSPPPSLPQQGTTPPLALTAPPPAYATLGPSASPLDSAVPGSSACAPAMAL
T1 sequence (Q9WU38 1-638): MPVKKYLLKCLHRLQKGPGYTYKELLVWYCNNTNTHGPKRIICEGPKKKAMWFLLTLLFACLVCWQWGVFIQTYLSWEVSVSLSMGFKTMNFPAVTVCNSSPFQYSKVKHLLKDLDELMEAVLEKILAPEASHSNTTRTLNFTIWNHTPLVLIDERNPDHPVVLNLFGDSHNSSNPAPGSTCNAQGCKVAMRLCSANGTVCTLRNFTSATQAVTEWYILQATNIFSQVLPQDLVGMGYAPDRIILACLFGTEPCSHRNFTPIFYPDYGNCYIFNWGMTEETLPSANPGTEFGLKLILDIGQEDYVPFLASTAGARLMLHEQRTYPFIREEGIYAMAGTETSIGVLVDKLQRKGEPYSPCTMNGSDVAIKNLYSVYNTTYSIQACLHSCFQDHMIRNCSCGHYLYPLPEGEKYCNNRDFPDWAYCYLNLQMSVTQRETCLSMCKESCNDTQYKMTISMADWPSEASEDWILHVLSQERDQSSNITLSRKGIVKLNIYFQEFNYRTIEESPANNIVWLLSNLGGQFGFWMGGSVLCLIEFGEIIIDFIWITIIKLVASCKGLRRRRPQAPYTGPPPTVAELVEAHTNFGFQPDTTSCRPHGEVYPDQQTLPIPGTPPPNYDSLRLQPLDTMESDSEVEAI
T1 sequence (Q9WU39 1-655): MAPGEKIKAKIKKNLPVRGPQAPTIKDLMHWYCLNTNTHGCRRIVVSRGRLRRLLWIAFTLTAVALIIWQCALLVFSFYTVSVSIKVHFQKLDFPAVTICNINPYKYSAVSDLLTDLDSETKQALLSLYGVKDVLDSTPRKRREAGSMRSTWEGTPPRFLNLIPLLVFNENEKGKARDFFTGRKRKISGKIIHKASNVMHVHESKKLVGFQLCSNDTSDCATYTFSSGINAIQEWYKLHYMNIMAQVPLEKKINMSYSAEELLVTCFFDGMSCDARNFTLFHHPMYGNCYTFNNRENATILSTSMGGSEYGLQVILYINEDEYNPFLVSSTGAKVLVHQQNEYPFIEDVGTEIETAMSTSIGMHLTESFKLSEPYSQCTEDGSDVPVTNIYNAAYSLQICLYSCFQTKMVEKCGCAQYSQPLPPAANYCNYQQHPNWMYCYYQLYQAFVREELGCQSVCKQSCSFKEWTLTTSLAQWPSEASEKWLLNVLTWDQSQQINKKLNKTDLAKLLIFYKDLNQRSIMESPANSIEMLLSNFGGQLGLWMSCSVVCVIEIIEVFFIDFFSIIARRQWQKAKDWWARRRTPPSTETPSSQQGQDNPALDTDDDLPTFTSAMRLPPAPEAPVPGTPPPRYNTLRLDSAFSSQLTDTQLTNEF

[5] = system: INS-1 cells; test: ELISA of insulin secretion from INS-1 cells; assay type: cell-based, rat; conditions: 15 seconds to 120 minutes after stimulation
[6] = target: T1, ENaC; test: In vivo nasal potential difference, ENaC-mediated Na+ absorption
[7] = system: INS-1 rat pancreatic β cells; test: Fura-2 fluorescence assay of cell calcium in INS-1 cells; assay type: cell-based; conditions: Na+- and Mg2+-free Ringer, zinc alone 1-50 micromolar
Experimental: Cytosolic Ca^2+ concentration was measured with dual excitation wavelength fluorescence microscopy (Deltascan, Photon Technologies, Princeton, N.J.) after cells were loaded with the permeant form of the fluorescence dye, Fura-2-acetoxymethyl ester (Fura-2-AM; Teflabs, Austin, Tex., USA). Fura-2 fluorescence was measured at an emission wavelength of 510 nm in response to excitation wavelength of 340 nm and 380 nm, alternated at a rate of 50 Hz by a computer-controlled chopper assembly. Ratios (340 nm/380 nm) were calculated at a […] using PTI software. Cells were incubated in Dulbecco's phosphate buffered saline containing 2 mM CaCl2 and 1 mM MgCl2 in the presence of 5 μM Fura2-AM and 1 mg/ml Pluronic F-127 dissolved in DMSO for 120 min to allow loading of the dye into the cells. After loading, coverslips were rinsed at least for 10 min in Dulbecco's phosphate buffered saline to remove extracellular Fura 2-AM and the surfactant, and were positioned in the cuvette at a 45° angle from the excitation light. […] Fluorescence intensities at both wavelengths were assessed and only those preparations in which there were >200,000 counts/s for both wavelengths were used for experiments. At the beginning of each experiment, cells were perfused with solution A (see below) and the fluorescence ratio was monitored for at least 100 sec to establish a stable baseline value. […]

[8] = system: IB3-1 CF cells; test: SPQ halide fluorescence assay of Cl- efflux; assay type: cell-based, human; conditions: Na+- and Mg2+-free vehicle, 3 mM Ca2+, pH 7.9
Experimental: Modifications to this method involved the use of NaCl at the beginning and end of protocols. Agonists were tested in NMDGNO3-containing solution (as above for Ca^2+ assays).
In our modified saline vehicle that was devoid of Na+ and Mg^2+ and enriched in Ca^2+ (3 mM) along with modifications in the halides (Cl− substituted with iodide to quench the SPQ dye and nitrate to unquench), ATP plus zinc or zinc alone was added to IB3-1 CF cells and halide efflux was rescued in these cells. The effects were dependent upon an alkaline extracellular pH (pH 7.9) and the presence of extracellular Ca^2+. In essence, the rescue of Cl− transport (measured with a different halide in this case) was dependent upon the same chemical conditions as the zinc-induced Ca^2+ entry.

[9] = system: Cl− transport across the nasal mucosa; test: In vivo nasal potential difference, rescue of Cl- secretion; design: species or system mouse; conditions: CF mice

C/C=C(/C)C(=O)O[C@H]1C(C)=C2[C@H]([C@@H]1OC(=O)CCCCCCC)[C@@](C)(OC(C)=O)C[C@H](OC(=O)CCC)[C@@]1(O)[C@H]2OC(=O)[C@@]1(C)O [thapsigargin]
effect on zinc-induced Ca2+ transients ([1]; thapsigargin pretreatment, Ca2+-free medium): abolished | Fura-2 fluorescence ratio, transient peak (store-operated calcium channels) ([2]; thapsigargin 100 nM, ER store depletion and re-addition of extracellular calcium): 3.0

O=S(=O)([O-])[O-].O=S(=O)([O-])[O-].O=S(=O)([O-])[O-].[Fe+3].[Fe+3] [Ferric iron, ferric sulfate]
growth, iron competition experiment [3]: enhanced growth significantly

ivermectin
effect on zinc and/or ATP induced manganese or calcium entry ([1]; included with ATP and/or zinc, Fura-2 quenching and direct Fura-2 assays): potentiated

[Cu] [copper]
effect on zinc effects (Ca2+ entry) [1]: competitively inhibit

[Ni] [nickel, reference compound]
concentrations required for inhibition in ISC recordings [4]: Millimolar | doses inhibitory in PD assays [4]: mid-micromolar

[Zn+2] [zinc]
zinc-induced increases in Ca2+ ([1]; Ca2+-free medium): small and transient | Fura-2 fluorescence ratio, sustained calcium entry ([2]; Na+ free conditions, pH 7.9): 2.1 | insulin secretion versus glucose stimulus [5]: even more potent stimulus than glucose | depolarization of NPD ([6]; Cincinnati bitransgenic CF mouse): ~10 mV | depolarization of NPD ([6]; control mouse, NaCl-replete lactated Ringer): 3-4 mV | depolarization of NPD ([6]; deIF508 CF mouse): 6-7 mV | concentrations required for inhibition in ISC recordings [4]: Millimolar | doses inhibitory in PD assays [4]: mid-micromolar | concentration range inhibiting ENaC ([4]; Ussing chamber recordings): 50 to 100 µM | effect on cell calcium / Ca2+ entry [7]: further sustained increase in Ca^2+ entry; also recorded: small transient increase above the sustained plateau | pIC50 ([3]; read-out: IC50, bacterial growth inhibition): 2.30 to 3.00 | halide efflux / Cl- permeability in CF cells [8]: rescued

ferrous sulfate
growth, iron competition experiment [3]: inhibit

C[C@H](CCC(=O)O)C[C@H](C)C[C@H](C)C(=O)/C=C(\O)[C@H](C)C[C@H](C)C/C=C/[C@@H](C)[C@@H](O)[C@@H](C)[C@@H](O)C[C@@H]1CC[C@@](C)([C@H]2CC[C@@](C)([C@@H](C)O)O2)O1 [ionomycin]
Fura-2 fluorescence ratio, sustained ([2]; ionomycin 2 μM): 3.4

[Cl-].[Cl-].[Zn+2] [ZnCl2, zinc chloride]
halide efflux / Cl- permeability in CF cells [8]: restored Cl− permeability

CC(C)NCC(O)c1ccc(O)c(O)c1 (centres unmarked) [isoproterenol]
effect on nasal PD [9]: without effect
